# Test results as given in patent US9790229B2, “Bruton's tyrosine kinase inhibitors” (priority 2009, dated 2017).
# Biological target: BTK (Homo sapiens (Human), UniProt Q06187)
# Test: In vitro BTK kinase assay: BTK-POLYGAT-LS ASSAY
# Settings: not given
# Sequence of BTK (Q06187 whole entry): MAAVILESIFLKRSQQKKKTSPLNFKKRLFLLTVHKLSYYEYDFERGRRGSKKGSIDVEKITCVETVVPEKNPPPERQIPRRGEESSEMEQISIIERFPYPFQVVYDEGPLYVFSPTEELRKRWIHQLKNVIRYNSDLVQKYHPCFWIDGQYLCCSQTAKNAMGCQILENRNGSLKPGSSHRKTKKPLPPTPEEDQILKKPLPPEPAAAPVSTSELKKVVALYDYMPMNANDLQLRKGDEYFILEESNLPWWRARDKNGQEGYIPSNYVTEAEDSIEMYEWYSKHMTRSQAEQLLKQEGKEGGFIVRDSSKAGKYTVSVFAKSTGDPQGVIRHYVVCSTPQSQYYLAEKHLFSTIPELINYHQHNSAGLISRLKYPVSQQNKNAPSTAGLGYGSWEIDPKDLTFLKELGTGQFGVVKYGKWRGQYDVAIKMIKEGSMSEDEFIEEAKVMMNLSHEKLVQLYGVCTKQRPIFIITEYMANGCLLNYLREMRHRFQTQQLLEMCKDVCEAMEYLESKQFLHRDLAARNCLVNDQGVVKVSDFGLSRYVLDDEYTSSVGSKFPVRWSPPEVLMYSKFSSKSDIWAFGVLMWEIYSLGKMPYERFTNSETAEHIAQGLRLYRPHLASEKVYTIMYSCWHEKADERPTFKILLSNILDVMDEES
row,Structure (SMILES),IC50
1,"Nc1ncnc(N2CCC[C@@H](N3CCCC(Nc4ccccc4C(=O)O)C3=O)C2)c1F (stereo partly drawn) [compound 297, 2-((3′R)-1′-(6-Amino-5-fluoropyrimidin-4-yl)-2-oxo-1,3′-bipiperidin-3-ylamino)benzoic acid]",1000 to 10000 nM
2,O=C(Nc1cccc(C2CCCN(c3ncnc4[nH]ccc34)C2)c1)Nc1c(Cl)cccc1C(F)(F)F (stereo not shown) [compound 161],100 to 999 nM
3,N#C/N=C(\Nc1cccc(C2CCCN(c3ncnc4[nH]ccc34)C2)c1)Nc1c(Cl)cccc1Cl (stereo not shown) [compound 269],100 to 999 nM
4,O=C(NCc1cccc(C2CCCN(c3ncnc4[nH]ccc34)C2)c1)Nc1ccccc1 (stereo not shown) [compound 216],1000 to 10000 nM
5,CN1CCN(c2ccccc2NC(=O)Nc2cccc(C3CCCN(c4ncnc5[nH]ccc45)C3)c2)CC1 (stereo not shown) [compound 209],1000 to 10000 nM
6,"Nc1cc(N2CCCC(c3cccc(NC(=O)Nc4ccccc4)c3)C2)ncn1 (stereo not shown) [Cmpd 94, 1-(3-(1-(6-aminopyrimidin-4-yl)piperidin-3-yl)phenyl)-3-phenylurea]",1000 to 10000 nM
7,N#Cc1c(N)ncnc1N1CCCC(c2ccc(OC(F)(F)F)c(NC(=O)c3ccccc3Cl)c2)C1 (stereo not shown) [compound 145],100 to 999 nM
8,"Nc1ncnc(N2CCC(F)C(N3CCCC(Nc4cc(F)cc(Cl)c4)C3=O)C2)c1F (stereo not shown) [compound 340, 1′-(6-Amino-5-fluoropyrimidin-4-yl)-3-(3-chloro-5-fluorophenylamino)-4′-fluoro-1,3′-bipiperidin-2-one]",100 to 999 nM
9,CN(C)[C@H]1CCN(c2ccccc2NC(=O)Nc2cccc(C3CCCN(c4ncnc5[nH]ccc45)C3)c2)C1 (stereo partly shown) [compound 192],1000 to 10000 nM
10,O=C(Nc1cccc(C2CCCN(c3ncnc4[nH]ccc34)C2)c1)Nc1ccccc1N1C[C@@H](O)[C@H](O)C1 (stereo partly shown) [compound 158],100 to 999 nM
11,"CC(C)c1cc(=O)nc(Nc2cccc(C3CCCN(c4ncnc5[nH]ccc45)C3)c2)[nH]1 (stereo not shown) [compound 121, 2-(3-(1-(7H-pyrrolo[2,3-d]pyrimidin-4-yl)piperidin-3-yl)phenylamino)-6-isopropylpyrimidin-4(1H)-one]",1000 to 10000 nM
12,"O=C(Nc1ccccc1)Nc1nc(C2CCCN(c3ncnc4[nH]ccc34)C2)cs1 (stereo not shown) [compound 116, 1-(4-(1-(7H-pyrrolo[2,3-d]pyrimidin-4-yl)piperidin-3-yl)thiazol-2-yl)-3-phenylurea]",1000 to 10000 nM
13,O=C(Nc1cccc(C2CCCN(c3ncnc4[nH]ccc34)C2)c1)NC1CCCC1 (stereo not shown) [compound 193],1000 to 10000 nM
14,"CC(C)c1ccccc1NC(=O)Nc1cccc(C2CN(c3ncnc4[nH]ccc34)CCN2CCO)c1 (stereo not shown) [compound 133, 1-(3-(1-(2-hydroxyethyl)-4-(7H-pyrrolo[2,3-d]pyrimidin-4-yl)piperazin-2-yl)phenyl)-3-(2-isopropylphenyl)urea]",100 to 999 nM
15,"CC(=O)NCc1ccccc1NC(=O)Nc1cccc(C2CCCN(c3ncnc4[nH]ccc34)C2)c1 (stereo not shown) [Cmpd 62, N-(2-(3-(3-(1-(7H-pyrrolo[2,3-d]pyrimidin-4-yl)piperidin-3-yl)phenyl)ureido)benzyl)acetamide]",1000 to 10000 nM
16,"Cc1cc(NC(=O)Nc2cccc(C3CCCN(c4ncnc5[nH]ccc45)C3)c2)on1 (stereo not shown) [Cmpd 66, 1-(3-(1-(7H-pyrrolo[2,3-d]pyrimidin-4-yl)piperidin-3-yl)phenyl)-3-(3-methylisoxazol-5-yl)urea]",1000 to 10000 nM

# Same assay, conditions: read-out: IC50 (10 uM ATP); 10 uM ATP; in vitro Btk kinase assay, Example 41
row,Structure (SMILES),IC50
1,"Nc1ncnc(N2CCC(C(F)(F)F)C(N3CC=CC[C@@H](Nc4cc(F)cc(Cl)c4)C3=O)C2)c1F (stereo partly drawn) [compound 349, trans (R,Z)-1-(-1-(6-amino-5-fluoropyrimidin-4-yl)-4-(trifluoromethyl)piperidin-3-yl)-3-(3-chloro-5-fluorophenylamino)-3,4-dihydro-1H-azepin-2(7H)-one]",< 100 nM
2,"CC(=O)Nc1cc(N2CCCC(c3cccc(NC(=O)Nc4ccccc4)c3)C2)ncn1 (stereo not shown) [Cmpd 92, N-(6-(3-(3-(3-phenylureido)phenyl)piperidin-1-yl)pyrimidin-4-yl)acetamide]",> 10000 nM
3,"Nc1ncnc(N2CCC[C@@H](N3CC(O)C(O)C[C@@H](Nc4cc(F)cc(Cl)c4)C3=O)C2)c1F (stereo partly drawn) [compound 348, (3R)-1-((R)-1-(6-amino-5-fluoropyrimidin-4-yl)piperidin-3-yl)-3-(3-chloro-5-fluorophenylamino)-5,6-dihydroxyazepan-2-one]",< 100 nM
4,O=C(Nc1cccc(C2CCCN(c3ncnc4[nH]ccc34)C2)c1)Nc1c(F)cccc1N1CCCC1 (stereo not shown) [compound 146],< 100 nM
5,COc1ccc(C2CCCN(c3ncnc4[nH]ccc34)C2)cc1NC(=O)Nc1ccccc1 (stereo not shown) [compound 266],> 10000 nM
6,O=C1C(Nc2cc(F)cc(Cl)c2)CCCN1[C@H]1CN(c2ncnc3[nH]ccc23)CC[C@@H]1C(F)(F)F (stereo partly shown) [compound 352],< 100 nM
7,CC(=O)N1CCC(CNC(=O)Nc2cccc(C3CCCN(c4ncnc5[nH]ccc45)C3)c2)CC1 (stereo not shown) [compound 246],> 10000 nM
8,"O=C(Nc1csc(C2CCCN(c3ncnc4[nH]ccc34)C2)n1)Nc1c(F)cc(F)cc1N1CCCC1 (stereo not shown) [compound 111, 1-(2-(1-(7H-pyrrolo[2,3-d]pyrimidin-4-yl)piperidin-3-yl)thiazol-4-yl)-3-(2,4-difluoro-6-(pyrrolidin-1-yl)phenyl)urea]",< 100 nM
9,Nc1ncnc(N2CC[C@H](C(F)(F)F)[C@@H](N3CC[C@@H](Nc4cc(Cl)cc(Cl)c4)C3=O)C2)c1F [compound 353],< 100 nM
10,CC(C)c1cccc(C(C)C)c1NC(=O)Nc1cccc(C2CCCN(c3ncnc4[nH]ccc34)C2)c1 (stereo not shown) [compound 154],< 100 nM
11,"Nc1ncnc(N2CCC[C@@H](N3CCCC(Nc4ccccc4S(=O)(=O)C4CCCCC4)C3=O)C2)c1F (stereo partly drawn) [compound 320, (3′R)-1′-(6-Amino-5-fluoropyrimidin-4-yl)-3-(2-(cyclohexylsulfonyl)phenylamino)-1,3′-bipiperidin-2-one]",< 100 nM
12,"O=C(Nc1ccccc1)Nc1cc(C2CCCN(c3ncnc4[nH]ccc34)C2)cc(C(F)(F)F)c1 (stereo not shown) [Cmpd 83, 1-(3-(1-(7H-pyrrolo[2,3-d]pyrimidin-4-yl)piperidin-3-yl)-5-(trifluoromethyl)phenyl)-3-phenylurea]",> 10000 nM
13,"Nc1ncnc(N2CCOCC(N3CCCC(Nc4cc(F)cc(Cl)c4)C3=O)C2)c1F (stereo not shown) [compound 345, 1-(4-(6-Amino-5-fluoropyrimidin-4-yl)-1,4-oxazepan-6-yl)-3-(3-chloro-5-fluorophenylamino)piperidin-2-one]",< 100 nM
14,"Nc1ncnc(N2CCC[C@@H](N3CCCC(Nc4ccccc4S(=O)(=O)c4ccccc4)C3=O)C2)c1F (stereo in doubt) [compound 319, 1′-(6-Amino-5-fluoropyrimidin-4-yl)-3-(2-(phenylsulfonyl)phenylamino)-1,3′-bipiperidin-2-one]",< 100 nM
15,CN1CCCCC1CNC(=O)Nc1cccc(C2CCCN(c3ncnc4[nH]ccc34)C2)c1 (stereo not shown) [compound 228],> 10000 nM
16,"CS(=O)(=O)N1CCN(c2ncnc3[nH]ccc23)CC1c1cccc(NC(=O)Nc2ccccc2)c1 (stereo not shown) [compound 128, 1-(3-(1-(methylsulfonyl)-4-(7H-pyrrolo[2,3-d]pyrimidin-4-yl)piperazin-2-yl)phenyl)-3-phenylurea]",> 10000 nM
17,Cc1nn(C)c(C)c1NC(=O)Nc1cccc(C2CCCN(c3ncnc4[nH]ccc34)C2)c1 (stereo not shown) [compound 244],> 10000 nM

row,Structure (SMILES),IC50
1,CC(C)(C#N)c1ccccc1NC(=O)Nc1cccc(C2CCCN(c3ncnc4[nH]ccc34)C2)c1 (stereo not shown) [compound 260],> 10000 nM
2,C[C@H](NC(=O)Nc1cccc(C2CCCN(c3ncnc4[nH]ccc34)C2)c1)c1ccccc1 (stereo partly shown) [compound 248],> 10000 nM
3,"O=C(Nc1cccc(C2CCCN(c3ncnc4[nH]ccc34)C2)c1)c1c(Cl)cccc1Cl (stereo not shown) [Cmpd 10, N-(3-(1-(7H-pyrrolo[2,3-d]pyrimidin-4-yl)piperidin-3-yl)phenyl)-2,6-dichlorobenzamide]",> 10000 nM
4,"O=C(Nc1csc(C2CCCN(c3ncnc4[nH]ccc34)C2)n1)Nc1ccccc1N1CCCC1 (stereo not shown) [compound 107, 1-(2-(1-(7H-pyrrolo[2,3-d]pyrimidin-4-yl)piperidin-3-yl)thiazol-4-yl)-3-(2-(pyrrolidin-1-yl)phenyl)urea]",< 100 nM
5,"S=C(Nc1ccccc1)Nc1cccc(C2CCCN(c3ncnc4[nH]ccc34)C2)c1 (stereo not shown) [Cmpd 67, 1-(3-(1-(7H-pyrrolo[2,3-d]pyrimidin-4-yl)piperidin-3-yl)phenyl)-3-phenylthiourea]",> 10000 nM
6,CN1CCC(O)(CNC(=O)Nc2cccc(C3CCCN(c4ncnc5[nH]ccc45)C3)c2)CC1 (stereo not shown) [compound 235],> 10000 nM
7,"Nc1ncnc(N2CCC[C@@H](N3CCC[C@@H](Nc4cc(Cl)cc(Cl)c4)C3=O)C2)c1F [compound 315, (3R,3′R)-1′-(6-Amino-5-fluoropyrimidin-4-yl)-3-(3,5-dichlorophenylamino)-1,3′-bipiperidin-2-one]",< 100 nM
8,"O=C(CNc1ccccc1)Nc1cccc(C2CCCN(c3ncnc4[nH]ccc34)C2)c1 (stereo not shown) [Cmpd 17, N-(3-(1-(7H-pyrrolo[2,3-d]pyrimidin-4-yl)piperidin-3-yl)phenyl)-2-(phenylamino) acetamide]",> 10000 nM
9,CC(C)(C)c1ccccc1NC(=O)Nc1cccc([C@H]2CCCN(c3ncnc4[nH]ccc34)C2)c1 [compound 156],< 100 nM
10,"N#Cc1c(N)ncnc1N1CCCC(c2nc(NC(=O)Nc3ccccc3N3CCCC3)cs2)C1 (stereo not shown) [compound 109, 1-(2-(1-(6-amino-5-cyanopyrimidin-4-yl)piperidin-3-yl)thiazol-4-yl)-3-(2-(pyrrolidin-1-yl)phenyl)urea]",< 100 nM
11,"CC(C)(C)CNC1CCCN([C@@H]2CCCN(c3ncnc(N)c3F)C2)C1=O (stereo partly drawn) [compound 292, (3′R)-1′-(6-Amino-5-fluoropyrimidin-4-yl)-3-(neopentylamino)-1,3′-bipiperidin-2-one]",> 10000 nM
12,Nc1ncnc(N2CCOCC(N3CCCC(Nc4cc(Cl)cc(Cl)c4)C3=O)C2)c1F (stereo not shown) [compound 344],< 100 nM
13,O=C(Nc1cccc(C2CCCN(c3ncnc4[nH]ccc34)C2)c1)Nc1cccc2[nH]ncc12 (stereo not shown) [compound 226],> 10000 nM
14,O=C(Nc1ccccc1)N[C@H]1CCN(C2CCCN(c3ncnc4[nH]ccc34)C2)C1 (stereo partly shown) [compound 256],> 10000 nM
15,CC(C)c1ccccc1NC(=O)Nc1cccc(C2CCCN(c3ncnc4[nH]ccc34)C2)c1 (stereo not shown) [compound 151],< 100 nM
16,CCOC(=O)/C=C/c1c(N)ncnc1N1CCCC(c2cccc(NC(=O)Nc3ccccc3)c2)C1 (stereo not shown) [compound 221],> 10000 nM
